Assay results published in patent US20090238808A1, “Process for the identification of novel enzyme interacting compounds” (priority 2005, published 2009).

How the values were obtained:
Assay in all cases: Kinobeads elution with test compound, mouse brain lysate, MS
Format in all cases: binding
Settings in all cases: kinase released from kinobeads by specific elution
AAK1 = AAK1 (Mus musculus, UniProt Q3UHJ0)
Procedure: (§1) This example illustrates competitive elution of proteins bound to kinobeads with non-modified test compounds (see particularly the fourth aspect of the invention). The kinobeads (as described in example 1) were contacted with mouse brains lysate, bound proteins were eluted with various test compounds and the released proteins were analysed by mass spectrometry.
(§2) The kinobeads were contacted with mouse brain lysate under conditions that allow the binding of the proteins in the lysate to the ligands. The binding conditions were close to physiological by choosing suitable buffer conditions preserving the function of the proteins. After removing non-captured proteins through a gentle washing procedure the bound proteins were contacted with a test compound for protein elution.
(§3) Various test compounds (see section 2.7) were used to release bound proteins following these steps:
(§4) 1. Resuspend beads with bound proteins (section 2.4) in 1×DP buffer/0.2% NP-40 as 1:3 slurry (volume/volume). 2. Transfer 20 μl the 1:3 slurry into MoBiTech columns (equivalent to 5 μl of beads). 3. Place the column into an Eppendorf tube and centrifuge it for 15 seconds at 800 rpm at 4° C. Close columns with lower lid. 4. Add 10 μl elution buffer containing 1.0 mM of the test compound (concentration ranges of 0.1 to 1.0 mM are suitable). As a control use elution buffer containing 2% DMSO or 2% DMF dependent on the solvent used for dissolving the test compound. Close column with upper lid. 5. Incubate for 30 minutes at 4° C. in an Eppendorf incubator at 700 rpm. 6. Open column (first top, then bottom), put column back into siliconized tube (SafeSeal Microcentrifuge Tubes, cat. no 11270, Sorenson BioScience, Inc.). To harvest the eluate centrifuge 2 minutes at 2.000 rpm in table top centrifuge at room temperature. The typical volume of the eluate is approximately 15 μl. 7. Add 5 μl 4× NuPAGE SDS Sample Buffer (Invitrogen, NP0007) containing 100 mM DTT (DTT has to be added just prior to use). 8. Incubate for 30 minutes at 50° C. 9. Add 1/10 volume of 200 mg/ml iodoacetamide, incubate for 30 min at room temperature, protect from light. This reaction leads to the alkylation of cysteines for mass spectrometry. 10. Before loading samples onto the gel, centrifuge samples for 5 minutes at 15.000 rpm in order to remove precipitates. 11. For protein separation apply 10 μl sample to NuPAGE 4-12% Bis-Tris gel (Invitrogen, NPO335). 2.6 Preparation of Stock Solutions used in this Protocol
(§5) Search criteria varied depending on which mass spectrometer was used for the analysis.

CaMK2b = CaMK2b (Mus musculus, UniProt P28652)
CaMK2b, sequence (P28652 whole entry): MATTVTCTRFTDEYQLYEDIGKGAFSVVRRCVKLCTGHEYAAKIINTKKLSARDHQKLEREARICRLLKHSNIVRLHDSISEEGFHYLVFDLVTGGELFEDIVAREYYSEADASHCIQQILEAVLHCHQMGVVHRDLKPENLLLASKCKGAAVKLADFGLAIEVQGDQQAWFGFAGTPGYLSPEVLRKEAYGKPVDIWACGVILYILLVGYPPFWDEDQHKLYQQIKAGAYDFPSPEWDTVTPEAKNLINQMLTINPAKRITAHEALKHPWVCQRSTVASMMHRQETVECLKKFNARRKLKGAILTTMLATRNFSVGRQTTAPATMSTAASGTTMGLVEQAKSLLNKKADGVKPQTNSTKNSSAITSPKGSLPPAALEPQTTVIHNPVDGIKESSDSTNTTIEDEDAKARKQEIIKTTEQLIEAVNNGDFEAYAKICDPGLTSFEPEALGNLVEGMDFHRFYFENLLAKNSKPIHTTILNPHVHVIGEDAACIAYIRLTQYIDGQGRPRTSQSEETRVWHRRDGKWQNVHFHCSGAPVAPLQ
Procedure: as §1, §2, §3, §4, §5

Erk2 = molecular target: T1, Erk2 (Mus musculus, UniProt P63085)
T1 construct: […]; from tissue; host or cells: mouse brain
T1 sequence (P63085 whole entry): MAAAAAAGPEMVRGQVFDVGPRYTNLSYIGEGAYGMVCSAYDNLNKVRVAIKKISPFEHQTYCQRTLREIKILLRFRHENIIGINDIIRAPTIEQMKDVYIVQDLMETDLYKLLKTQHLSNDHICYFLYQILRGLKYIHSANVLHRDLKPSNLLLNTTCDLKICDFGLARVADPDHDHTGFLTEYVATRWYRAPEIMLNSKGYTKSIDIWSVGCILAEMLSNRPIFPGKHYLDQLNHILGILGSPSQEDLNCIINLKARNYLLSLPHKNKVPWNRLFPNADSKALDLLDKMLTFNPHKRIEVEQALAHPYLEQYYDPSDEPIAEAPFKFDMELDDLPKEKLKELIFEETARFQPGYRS
Procedure: as §1, §2, §3, §4, §5

GAK = molecular target: T2, GAK (Mus musculus, UniProt Q99KY4)
T2 construct: from tissue; host or cells: mouse brain
T2 sequence (Q99KY4 1-1305): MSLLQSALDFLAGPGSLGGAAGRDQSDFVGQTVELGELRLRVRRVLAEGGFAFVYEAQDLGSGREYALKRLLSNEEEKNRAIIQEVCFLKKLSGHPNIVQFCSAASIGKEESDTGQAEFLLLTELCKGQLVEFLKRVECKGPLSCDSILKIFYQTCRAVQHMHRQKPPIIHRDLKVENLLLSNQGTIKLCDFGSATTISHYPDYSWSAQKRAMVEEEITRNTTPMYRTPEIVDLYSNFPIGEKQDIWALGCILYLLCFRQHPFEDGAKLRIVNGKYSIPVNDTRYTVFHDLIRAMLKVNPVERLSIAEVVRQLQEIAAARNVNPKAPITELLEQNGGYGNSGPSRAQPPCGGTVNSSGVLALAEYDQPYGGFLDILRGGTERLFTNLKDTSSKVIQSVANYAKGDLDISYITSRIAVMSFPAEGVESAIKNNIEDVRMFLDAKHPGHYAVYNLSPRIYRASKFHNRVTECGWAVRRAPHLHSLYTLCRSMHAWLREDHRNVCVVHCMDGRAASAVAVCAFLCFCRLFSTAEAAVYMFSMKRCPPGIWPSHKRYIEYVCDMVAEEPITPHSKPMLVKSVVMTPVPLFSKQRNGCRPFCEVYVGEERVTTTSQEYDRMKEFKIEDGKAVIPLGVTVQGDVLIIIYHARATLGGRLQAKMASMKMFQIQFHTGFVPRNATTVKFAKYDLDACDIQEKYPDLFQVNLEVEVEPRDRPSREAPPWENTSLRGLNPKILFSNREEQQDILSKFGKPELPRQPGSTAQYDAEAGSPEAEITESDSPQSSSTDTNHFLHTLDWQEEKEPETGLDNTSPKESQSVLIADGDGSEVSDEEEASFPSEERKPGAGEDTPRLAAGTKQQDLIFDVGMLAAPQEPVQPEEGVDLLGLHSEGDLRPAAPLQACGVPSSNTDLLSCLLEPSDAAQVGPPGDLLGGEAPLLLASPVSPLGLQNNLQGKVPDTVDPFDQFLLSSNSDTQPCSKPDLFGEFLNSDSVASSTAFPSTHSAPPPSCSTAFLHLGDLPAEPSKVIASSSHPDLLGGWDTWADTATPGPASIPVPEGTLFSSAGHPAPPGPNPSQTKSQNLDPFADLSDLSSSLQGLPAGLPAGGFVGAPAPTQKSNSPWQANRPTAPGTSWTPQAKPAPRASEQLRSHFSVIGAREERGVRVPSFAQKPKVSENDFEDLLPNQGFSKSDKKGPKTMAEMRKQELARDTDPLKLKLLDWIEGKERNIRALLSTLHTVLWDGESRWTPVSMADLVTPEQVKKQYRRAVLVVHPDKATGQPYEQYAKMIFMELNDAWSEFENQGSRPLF
Procedure: as §1, §2, §3, §4, §5

GSK3Aps = molecular target: T3, GSK3Aps (Mus musculus, UniProt Q2NL51)
T3 construct: from tissue; host or cells: mouse brain
T3 sequence (Q2NL51 2-490 limits assumed): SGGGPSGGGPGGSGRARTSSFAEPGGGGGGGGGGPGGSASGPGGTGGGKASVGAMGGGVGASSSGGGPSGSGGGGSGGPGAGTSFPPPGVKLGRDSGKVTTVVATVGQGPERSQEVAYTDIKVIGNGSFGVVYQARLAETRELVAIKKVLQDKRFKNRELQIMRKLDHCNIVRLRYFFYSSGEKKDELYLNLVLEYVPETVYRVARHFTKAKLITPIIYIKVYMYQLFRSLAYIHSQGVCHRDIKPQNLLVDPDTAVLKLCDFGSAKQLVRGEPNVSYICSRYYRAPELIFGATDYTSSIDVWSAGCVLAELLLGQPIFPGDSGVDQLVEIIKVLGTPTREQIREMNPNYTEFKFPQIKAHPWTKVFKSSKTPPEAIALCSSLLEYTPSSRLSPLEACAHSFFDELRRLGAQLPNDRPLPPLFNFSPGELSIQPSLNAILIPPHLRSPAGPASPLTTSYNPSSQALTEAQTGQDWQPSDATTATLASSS
Procedure: as §1, §2, §3, §4, §5

JNK2 = molecular target: T4, JNK2 (Mus musculus, UniProt Q9WTU6)
T4 construct: from tissue; host or cells: mouse brain
T4 sequence (Q9WTU6 whole entry): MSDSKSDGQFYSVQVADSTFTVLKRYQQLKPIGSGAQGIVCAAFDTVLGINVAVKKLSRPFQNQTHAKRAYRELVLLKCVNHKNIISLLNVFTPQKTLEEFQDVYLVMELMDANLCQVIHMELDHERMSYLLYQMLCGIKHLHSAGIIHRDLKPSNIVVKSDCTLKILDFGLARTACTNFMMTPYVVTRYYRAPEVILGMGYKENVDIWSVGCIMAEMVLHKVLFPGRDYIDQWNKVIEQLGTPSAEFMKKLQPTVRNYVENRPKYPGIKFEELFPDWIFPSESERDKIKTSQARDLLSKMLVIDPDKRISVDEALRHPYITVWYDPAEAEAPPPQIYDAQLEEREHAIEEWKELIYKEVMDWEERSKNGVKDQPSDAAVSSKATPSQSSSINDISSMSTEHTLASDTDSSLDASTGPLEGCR
Procedure: as §1, §2, §3, §4, §5

SRC = molecular target: T5, SRC (Mus musculus, UniProt P05480)
T5 construct: from tissue; host or cells: mouse brain
T5 sequence (P05480 whole entry): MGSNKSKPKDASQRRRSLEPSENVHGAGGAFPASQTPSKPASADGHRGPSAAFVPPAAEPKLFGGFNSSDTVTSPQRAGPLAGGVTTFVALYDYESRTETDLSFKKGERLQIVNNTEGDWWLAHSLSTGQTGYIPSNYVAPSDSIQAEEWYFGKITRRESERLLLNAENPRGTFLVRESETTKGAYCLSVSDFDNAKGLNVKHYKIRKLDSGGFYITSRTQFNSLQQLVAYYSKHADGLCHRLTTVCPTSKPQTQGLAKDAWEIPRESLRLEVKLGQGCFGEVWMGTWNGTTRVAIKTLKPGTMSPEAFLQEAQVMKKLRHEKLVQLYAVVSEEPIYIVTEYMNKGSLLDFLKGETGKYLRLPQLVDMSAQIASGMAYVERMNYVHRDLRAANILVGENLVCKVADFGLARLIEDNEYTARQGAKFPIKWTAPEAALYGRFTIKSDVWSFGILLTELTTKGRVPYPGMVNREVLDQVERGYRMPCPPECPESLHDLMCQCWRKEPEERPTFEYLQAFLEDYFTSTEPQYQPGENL
Procedure: as §1, §2, §3, §4, §5

YESps = tested on: YESps
Procedure: as §1, §2, §3, §4, §5

MAP2K1 = molecular target: T6, MAP2K1 (Mus musculus, UniProt P31938)
T6 construct: from tissue; host or cells: mouse brain
T6 sequence (P31938 whole entry): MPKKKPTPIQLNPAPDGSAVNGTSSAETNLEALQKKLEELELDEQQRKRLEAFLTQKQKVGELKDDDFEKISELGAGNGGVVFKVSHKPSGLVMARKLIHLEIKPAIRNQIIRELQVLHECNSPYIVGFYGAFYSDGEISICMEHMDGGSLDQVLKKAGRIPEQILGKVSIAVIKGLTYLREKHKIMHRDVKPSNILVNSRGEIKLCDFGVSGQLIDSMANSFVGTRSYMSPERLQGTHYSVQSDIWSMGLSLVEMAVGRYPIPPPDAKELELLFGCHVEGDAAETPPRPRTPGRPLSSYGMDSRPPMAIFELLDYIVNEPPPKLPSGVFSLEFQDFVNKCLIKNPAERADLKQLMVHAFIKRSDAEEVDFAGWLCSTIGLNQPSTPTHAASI
Procedure: as §1, §2, §3, §4, §5

AAK1, sequence (Q3UHJ0 whole entry): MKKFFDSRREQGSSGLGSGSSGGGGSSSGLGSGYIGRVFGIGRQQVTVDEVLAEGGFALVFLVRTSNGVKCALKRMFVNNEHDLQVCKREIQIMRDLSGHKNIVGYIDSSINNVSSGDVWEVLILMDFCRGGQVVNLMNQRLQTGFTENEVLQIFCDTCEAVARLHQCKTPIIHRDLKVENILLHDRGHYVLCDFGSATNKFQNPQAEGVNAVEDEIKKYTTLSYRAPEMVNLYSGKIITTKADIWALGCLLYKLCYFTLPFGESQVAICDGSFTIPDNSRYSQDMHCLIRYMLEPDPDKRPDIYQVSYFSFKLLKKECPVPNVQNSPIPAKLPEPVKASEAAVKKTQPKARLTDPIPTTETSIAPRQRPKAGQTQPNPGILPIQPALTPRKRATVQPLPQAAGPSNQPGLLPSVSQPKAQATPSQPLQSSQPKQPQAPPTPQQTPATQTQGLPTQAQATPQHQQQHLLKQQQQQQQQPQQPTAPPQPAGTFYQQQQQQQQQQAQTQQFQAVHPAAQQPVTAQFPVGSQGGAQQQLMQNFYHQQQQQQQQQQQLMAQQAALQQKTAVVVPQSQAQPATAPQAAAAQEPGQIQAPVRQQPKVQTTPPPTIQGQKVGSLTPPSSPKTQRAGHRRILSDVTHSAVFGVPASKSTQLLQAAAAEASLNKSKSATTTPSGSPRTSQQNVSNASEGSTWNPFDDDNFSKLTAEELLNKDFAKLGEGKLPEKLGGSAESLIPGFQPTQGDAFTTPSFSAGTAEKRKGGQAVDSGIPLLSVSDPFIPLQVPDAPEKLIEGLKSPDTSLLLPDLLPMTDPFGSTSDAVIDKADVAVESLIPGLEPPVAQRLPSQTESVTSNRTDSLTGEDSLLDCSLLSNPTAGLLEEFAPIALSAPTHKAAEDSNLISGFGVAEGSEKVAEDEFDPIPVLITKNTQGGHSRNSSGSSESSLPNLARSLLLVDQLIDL

Structure (SMILES)	mass spectrometry score, AAK1 (AAK1)	number of identified peptides, AAK1 (AAK1)	mass spectrometry score, CaMK2b (CaMK2b)	number of identified peptides, CaMK2b (CaMK2b)	mass spectrometry score, Erk2 (Erk2)	number of identified peptides, Erk2 (Erk2)	mass spectrometry score, GAK (GAK)	number of identified peptides, GAK (GAK)	mass spectrometry score, GSK3Aps (GSK3Aps)	number of identified peptides, GSK3Aps (GSK3Aps)	mass spectrometry score, JNK2 (JNK2)	number of identified peptides, JNK2 (JNK2)	mass spectrometry score, SRC (SRC)	number of identified peptides, SRC (SRC)	mass spectrometry score, YESps (YESps)	number of identified peptides, YESps (YESps)	mass spectrometry score, MAP2K1 (MAP2K1)	number of identified peptides, MAP2K1 (MAP2K1)
Cn1c(=O)c(-c2c(Cl)cccc2Cl)cc2cnc(Nc3ccc(CN)cc3)cc21 [CZC7324]	582	35	499	14	1179	235	278	7	154	3	702	21	351	9				
NCc1ccc(Nc2ncc(F)c(Nc3ccccc3)n2)cc1 [CZC00008004]	718	35	685	30	810	46	733	16	635	27	662	18			110	3		
CNC1CC2OC(C)(C1OC)n1c3ccccc3c3c4c(c5c6ccccc6n2c5c31)C(=O)NC4 (centres unmarked) [CZC9280]	777	44	1182	72					868	47			546	13	480	12	49	2
CC(C)[C@H](CO)Nc1nc(Nc2ccc(C(=O)O)c(Cl)c2)c2ncn(C(C)C)c2n1 [Purvalanol B, reference compound]	1036	51	679	16	1437	115			357	6	277	7	544	13	304	7	78	2
CCCCCCCCCCCCOS(=O)(=O)[O-].[Na+] [SDS]	240	32	615	75	1023	102	166	8	585	77	369	20	419	25	236	13	90	4
